Here are results for 40 compounds from the kinase profiling compilation of Christmann-Franck et al. (2016).

Holding throughout (test): radiometric filter-binding kinase assay, Kinase HotSpot
Details in all cases: compound 0.5 µM; ATP 10 µM

In experiment [1] the test system is FLT4 (human), P35916 [Q890H].
The subject of experiment [2] is MAP2K6 (human), P52564 [S207E/T211E].
Experiment [3] concerns PRKCQ (human), Q04759 [P330L].
For experiment [4], the system named is MKNK1 (human), Q9BUB5 [T385D; 165-205 del].
MKNK1 (human), Q9BUB5 [T385D; 165-205 del], sequence (Q9BUB5 whole entry, looked up, stated change not applied): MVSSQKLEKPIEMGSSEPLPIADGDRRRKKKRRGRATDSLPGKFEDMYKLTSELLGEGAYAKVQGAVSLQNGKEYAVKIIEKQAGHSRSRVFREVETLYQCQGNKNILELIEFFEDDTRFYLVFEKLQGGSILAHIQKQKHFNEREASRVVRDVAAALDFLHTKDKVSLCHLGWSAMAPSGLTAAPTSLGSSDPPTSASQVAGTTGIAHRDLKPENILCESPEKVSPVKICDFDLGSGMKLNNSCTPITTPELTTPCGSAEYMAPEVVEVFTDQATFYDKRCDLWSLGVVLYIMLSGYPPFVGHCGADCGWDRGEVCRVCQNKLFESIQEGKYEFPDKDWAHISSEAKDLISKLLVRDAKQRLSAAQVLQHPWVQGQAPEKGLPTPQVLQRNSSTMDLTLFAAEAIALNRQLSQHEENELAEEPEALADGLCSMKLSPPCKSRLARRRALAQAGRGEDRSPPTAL

PRKCQ (human), Q04759 [P330L], sequence (Q04759 whole entry P330L, looked up): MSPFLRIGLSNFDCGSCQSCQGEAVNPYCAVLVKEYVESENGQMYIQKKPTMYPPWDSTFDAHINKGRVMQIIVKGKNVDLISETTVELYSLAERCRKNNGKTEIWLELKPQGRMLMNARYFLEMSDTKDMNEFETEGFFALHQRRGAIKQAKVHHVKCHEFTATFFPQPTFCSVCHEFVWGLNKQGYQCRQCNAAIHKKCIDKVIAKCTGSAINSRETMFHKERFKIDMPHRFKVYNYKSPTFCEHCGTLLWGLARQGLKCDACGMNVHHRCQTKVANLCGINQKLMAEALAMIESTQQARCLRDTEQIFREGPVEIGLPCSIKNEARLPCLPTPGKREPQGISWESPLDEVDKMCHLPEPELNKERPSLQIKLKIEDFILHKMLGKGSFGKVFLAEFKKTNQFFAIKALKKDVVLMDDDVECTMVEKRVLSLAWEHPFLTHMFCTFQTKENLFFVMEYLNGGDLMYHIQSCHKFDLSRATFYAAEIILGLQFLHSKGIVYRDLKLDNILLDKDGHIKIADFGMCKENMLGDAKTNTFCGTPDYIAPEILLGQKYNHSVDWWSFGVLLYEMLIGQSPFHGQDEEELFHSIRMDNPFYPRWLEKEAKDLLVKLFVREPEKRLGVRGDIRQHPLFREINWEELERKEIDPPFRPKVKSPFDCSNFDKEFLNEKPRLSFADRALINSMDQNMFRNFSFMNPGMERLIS
FLT4 (human), P35916 [Q890H], sequence (P35916 whole entry, looked up, stated change not applied): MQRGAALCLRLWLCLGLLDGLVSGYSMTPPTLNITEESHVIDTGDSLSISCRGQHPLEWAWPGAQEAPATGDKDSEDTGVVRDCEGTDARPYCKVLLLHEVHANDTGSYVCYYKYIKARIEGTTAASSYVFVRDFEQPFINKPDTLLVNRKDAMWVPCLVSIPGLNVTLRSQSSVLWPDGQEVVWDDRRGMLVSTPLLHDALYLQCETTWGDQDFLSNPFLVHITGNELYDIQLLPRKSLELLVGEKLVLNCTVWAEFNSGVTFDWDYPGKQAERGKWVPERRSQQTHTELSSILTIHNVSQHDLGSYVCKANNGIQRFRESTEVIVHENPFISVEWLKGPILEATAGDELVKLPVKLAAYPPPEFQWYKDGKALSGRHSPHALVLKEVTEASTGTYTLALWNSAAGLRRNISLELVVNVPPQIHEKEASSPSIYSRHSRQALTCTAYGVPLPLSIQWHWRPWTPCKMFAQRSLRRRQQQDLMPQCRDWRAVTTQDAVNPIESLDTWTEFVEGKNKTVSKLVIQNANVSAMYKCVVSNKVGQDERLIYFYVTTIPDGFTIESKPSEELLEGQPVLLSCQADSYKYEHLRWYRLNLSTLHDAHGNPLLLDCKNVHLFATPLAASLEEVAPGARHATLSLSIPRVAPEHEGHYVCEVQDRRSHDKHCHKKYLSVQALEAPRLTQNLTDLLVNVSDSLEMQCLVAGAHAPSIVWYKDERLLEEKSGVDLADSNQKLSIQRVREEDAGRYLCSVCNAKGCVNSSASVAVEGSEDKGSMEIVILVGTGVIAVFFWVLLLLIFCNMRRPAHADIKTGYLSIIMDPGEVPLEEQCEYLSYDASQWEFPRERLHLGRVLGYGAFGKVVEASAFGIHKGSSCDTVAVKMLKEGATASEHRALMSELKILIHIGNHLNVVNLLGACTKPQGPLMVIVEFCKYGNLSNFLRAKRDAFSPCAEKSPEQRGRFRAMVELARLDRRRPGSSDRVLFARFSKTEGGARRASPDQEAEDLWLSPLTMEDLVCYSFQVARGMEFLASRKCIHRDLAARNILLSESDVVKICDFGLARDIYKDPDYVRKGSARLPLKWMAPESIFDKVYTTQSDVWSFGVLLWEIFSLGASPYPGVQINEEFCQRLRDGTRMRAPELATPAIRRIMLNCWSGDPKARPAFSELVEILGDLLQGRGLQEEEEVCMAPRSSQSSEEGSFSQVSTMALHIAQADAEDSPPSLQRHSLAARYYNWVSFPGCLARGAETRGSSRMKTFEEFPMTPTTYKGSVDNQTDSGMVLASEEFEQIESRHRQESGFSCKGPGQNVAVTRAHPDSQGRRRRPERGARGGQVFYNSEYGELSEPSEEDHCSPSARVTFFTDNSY
MAP2K6 (human), P52564 [S207E/T211E], sequence (P52564 whole entry S207E/T211E, looked up): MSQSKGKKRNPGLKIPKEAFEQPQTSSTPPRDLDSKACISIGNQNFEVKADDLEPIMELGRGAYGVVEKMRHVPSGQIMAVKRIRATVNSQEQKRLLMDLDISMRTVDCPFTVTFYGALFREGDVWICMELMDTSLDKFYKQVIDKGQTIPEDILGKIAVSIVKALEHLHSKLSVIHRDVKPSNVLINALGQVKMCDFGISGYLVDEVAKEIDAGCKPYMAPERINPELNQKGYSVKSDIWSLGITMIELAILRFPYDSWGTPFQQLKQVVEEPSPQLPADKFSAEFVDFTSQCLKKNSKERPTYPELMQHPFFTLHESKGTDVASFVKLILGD

In the case of `COc1ccc(-c2cnc3c(-c4ccsc4)cnn3c2)cc1`, the residual activity (commonly the signal under treatment as a percentage of the control signal) in experiment [1] came to 94.1%; in experiment [2] it was 95.9%; in experiment [3], 98.7%; in experiment [4], 87.1%.

`O=c1c2ccccc2[nH]c(=S)n1CCN1CCC(=C(c2ccc(F)cc2)c2ccc(F)cc2)CC1`: the residual activity turned out to be 107% in experiment [1], 102% in experiment [2], 92.2% in experiment [3] and 101% in experiment [4].

Regarding `O=C1NC(=O)/C(=C/c2ccc3c(c2)OC(F)(F)O3)S1`, the residual activity in experiment [1] was 107%; in experiment [2], 92.3%; in experiment [3], 101%; in experiment [4], 93.1%.

With `CO[C@H]1CC2CC[C@@H](C)[C@@](O)(O2)C(=O)C(=O)N2CCCC[C@H]2C(=O)OC([C@H](C)C[C@@H]2CC[C@@H](O)[C@H](OC)C2)CC(=O)[C@H](C)/C=C(\C)[C@@H](O)[C@@H](OC)C(=O)[C@H](C)C[C@H](C)/C=C/C=C/C=C/1C` (stereo not given in full), the residual activity in experiment [1] came to 116%; in experiment [2], 107%; in experiment [3], 126%; in experiment [4] it was 101%.

For `O=C1Nc2ccc(Cl)cc2/C1=C/c1cc(Cl)c(O)c(Cl)c1`, the residual activity in experiment [1] came out at 87.3%; in experiment [2], 96.4%; in experiment [3] it was 105%; in experiment [4] it was 103%.

For `CCOc1cc2ncnc(Nc3cccc(Br)c3)c2cc1OCC`, the residual activity in experiment [1] is 88.1%; in experiment [2], 92.6%; in experiment [3], 89.2%; in experiment [4], 46%.

Take `O=c1cc(N2CCOCC2)oc2c(-c3ccccc3)cccc12`: the residual activity in experiment [1] was 96.4%; in experiment [2], 97.5%; in experiment [3] it was 112%; in experiment [4], 103%.

As for `Oc1ccc(Nc2nc(-c3ccc(Cl)cc3)cs2)cc1`, the residual activity worked out at 101% in experiment [1], 94% in experiment [2], 123% in experiment [3] and 98.9% in experiment [4].

With `c1ccc(-c2n[nH]cc2-c2ccnc3ccccc23)nc1`, the residual activity in experiment [1] is 92.2%; in experiment [2] it was 138%; in experiment [3], 115%; in experiment [4], 75.9%.

`O=C(O)/C=C/c1cc(Br)c(Br)c(Br)c1Br`: the residual activity in experiment [1] is 98.2%; in experiment [2], 96.1%; in experiment [3], 89.6%; in experiment [4] it was 61.1%.

Turning to `N#CC(C#N)=C(N)/C(C#N)=C/c1ccc(O)cc1`, the residual activity was found to be 95.9% in experiment [1], 94% in experiment [2], 99.8% in experiment [3] and 77.2% in experiment [4].

Regarding `CCCC(=O)Oc1ccc2[nH]c(C(=O)c3cc4ccccc4[nH]3)cc2c1`, the residual activity was 98.2% in experiment [1], 97.3% in experiment [2], 111% in experiment [3] and 101% in experiment [4].

Regarding `O=C1Cc2c([nH]c3ccc([N+](=O)[O-])cc23)-c2ccccc2N1`, the residual activity came out at 77.8% in experiment [1], 98.3% in experiment [2], 98.2% in experiment [3] and 76.9% in experiment [4].

On to `Nc1nc(Nc2ccc(S(N)(=O)=O)cc2)nn1C(=O)c1c(F)cccc1F`, for which the residual activity in experiment [1] came to 38%; in experiment [2], 90.5%; in experiment [3], 114%; in experiment [4], 90.9%.

For the compound `Cc1ccc(NC2=CC(=O)c3sc(C)nc3C2=O)cc1`, the residual activity in experiment [1] stood at 95.7%; in experiment [2], 90.4%; in experiment [3], 93%; in experiment [4] it was 117%.

In the case of `CC[n+]1c(/C=C/N(C)c2ccccc2)n(-c2ccccc2)c2ccc(-c3nc4ccccc4s3)cc21`, the residual activity is 90.9% in experiment [1], 103% in experiment [2], 94.6% in experiment [3] and 102% in experiment [4].

`O=C1NC(=O)/C(=C\c2ccc3nccnc3c2)S1`: the residual activity in experiment [1] amounted to 108%; in experiment [2] it was 91.2%; in experiment [3], 92.8%; in experiment [4], 96.5%.

Take `O=C1NC(=O)c2cc(Nc3ccc(F)cc3)c(Nc3ccc(F)cc3)cc21`: the residual activity in experiment [1] amounted to 102%; in experiment [2], 110%; in experiment [3], 98.7%; in experiment [4], 103%.

For `N/C(=N\N=C/c1ccc(-c2cccc([N+](=O)[O-])c2)o1)N[N+](=O)[O-]`, the residual activity turned out to be 86.3% in experiment [1], 111% in experiment [2], 94.6% in experiment [3] and 97.4% in experiment [4].

For `CC(C)[C@H](CO)Nc1nc(Nc2cccc(Cl)c2)c2ncn(C(C)C)c2n1`, the residual activity in experiment [1] was 110%; in experiment [2], 105%; in experiment [3], 127%; in experiment [4], 79.8%.

Consider `O=c1cc(N2CCNCC2)oc2c(-c3ccccc3)cccc12`, for which the residual activity in experiment [1] is 104%; in experiment [2] it was 96.2%; in experiment [3] it was 117%; in experiment [4], 107%.

Take `Nc1nc(Nc2ccc(S(N)(=O)=O)cc2)nn1C(=S)Nc1c(F)cccc1F`: the residual activity is 3.75% in experiment [1], 62.7% in experiment [2], 15.1% in experiment [3] and 23.4% in experiment [4].

Consider `COc1ccc(COc2ccc(Cc3cnc(N)nc3N)cc2OC)cc1`, for which the residual activity in experiment [1] amounted to 105%; in experiment [2], 87.4%; in experiment [3], 98%; in experiment [4] it was 113%.

On to `CC(C)(C)c1nc2c3ccc(F)cc3c3c(=O)[nH]ccc3c2[nH]1`, for which the residual activity is 71.2% in experiment [1], 89% in experiment [2], 66.8% in experiment [3] and 101% in experiment [4].

For the compound `Cn1cc(/C=C2\C(=O)Nc3ccc(S(N)(=O)=O)cc32)c2ccccc21`, the residual activity in experiment [1] was found to be 65.1%; in experiment [2], 116%; in experiment [3], 103%; in experiment [4] it was 74.1%.

As for `O=C(O)c1ccc2c3c1cccc3c(=O)n1c3ccccc3nc21`, the residual activity was 82.5% in experiment [1], 103% in experiment [2], 117% in experiment [3] and 60.3% in experiment [4].

As for `COc1cc2ncnc(N3CCN(C(=O)Nc4ccc(Oc5ccccc5)cc4)CC3)c2cc1OC`, the residual activity in experiment [1] was determined as 101%; in experiment [2] it was 96%; in experiment [3], 97.3%; in experiment [4] it was 94.9%.

As to `COc1cccc(-c2cc(=O)c3ccccc3o2)c1N`, the residual activity is 90.8% in experiment [1], 92.4% in experiment [2], 103% in experiment [3] and 95.4% in experiment [4].

On to `O=c1[nH]c2ccccc2n1C1CCN(Cc2ccc(-c3nc4cc5[nH]cnc5cc4nc3-c3ccccc3)cc2)CC1`, for which the residual activity in experiment [1] worked out at 98.7%; in experiment [2] it was 101%; in experiment [3] it was 96.4%; in experiment [4], 104%.

Turning to `O=C(c1ccccc1)c1ccc(N2CCOCC2)cc1O`, the residual activity in experiment [1] was found to be 112%; in experiment [2], 93.5%; in experiment [3], 92.5%; in experiment [4], 103%.

For `CC(=O)c1ccc(N2CCOCC2)cc1O`, the residual activity in experiment [1] came out at 112%; in experiment [2], 94.2%; in experiment [3], 99.5%; in experiment [4], 102%.

Consider `COc1cc2ncc(-c3ccccc3)nc2cc1OC`, for which the residual activity was determined as 90.4% in experiment [1], 94.9% in experiment [2], 101% in experiment [3] and 104% in experiment [4].

As for `O=C1Cc2c([nH]c3ccc(Br)cc23)-c2ccccc2N1`, the residual activity in experiment [1] worked out at 78.7%; in experiment [2], 95.3%; in experiment [3] it was 114%; in experiment [4], 98.4%.

`Nc1ncnc2c1c(-c1ccc(Oc3ccccc3)cc1)cn2C1CCCC1`: the residual activity was 50.8% in experiment [1], 99.3% in experiment [2], 131% in experiment [3] and 109% in experiment [4].

Take `O=C1Nc2ccccc2/C1=C1/Nc2ccccc2/C1=N\OCCC(O)CO` (stereo not given): the residual activity was found to be 22.3% in experiment [1], 79.7% in experiment [2], 92.9% in experiment [3] and 95.3% in experiment [4].

Regarding `CNC(=O)c1cc(Oc2ccc(NC(=O)Nc3ccc(Cl)c(C(F)(F)F)c3)cc2)ccn1`, the residual activity in experiment [1] worked out at 43%; in experiment [2], 96.9%; in experiment [3], 100%; in experiment [4], 75.1%.

In the case of `CS(=O)c1ccc(-c2nc(-c3ccc(F)cc3)c(-c3ccncc3)[nH]2)cc1` (stereo not given), the residual activity amounted to 119% in experiment [1], 102% in experiment [2], 111% in experiment [3] and 98.5% in experiment [4].

For `O=C1NC(=O)c2c1c1c3ccccc3n3c1c1c2c2ccccc2n1C1CCC3O1`, the residual activity in experiment [1] turned out to be 4.97%; in experiment [2], 19.3%; in experiment [3], 43.2%; in experiment [4] it was 48.6%.

Take `O=C1Nc2cc(Br)ccc2/C1=C1/Nc2ccccc2/C1=N\O`: the residual activity in experiment [1] is 50.8%; in experiment [2], 98.2%; in experiment [3], 105%; in experiment [4] it was 102%.

For `N#CCCc1ccc2c(c1)-c1[nH]c3ccc([N+](=O)[O-])cc3c1CC(=O)N2`, the residual activity in experiment [1] was found to be 66.5%; in experiment [2], 97.2%; in experiment [3], 111%; in experiment [4], 66.7%.
